# Square brackets hold non-standard residues; d marks the D form. Peptide text beside a SMILES is read from it. * marks the point of attachment. Ala(6-iPr-benzothiazol-2-yl) = CC(C)c1ccc2nc(C[C@H](N)C(=O)O)sc2c1; Ala(benzothiazol-2-yl) = N[C@@H](Cc1nc2ccccc2s1)C(=O)O; 2Nal = N[C@@H](Cc1ccc2ccccc2c1)C(=O)O; NHPhenethyl = c1ccc(CCN*)cc1; NHBn = c1ccc(CN*)cc1; Propionyl = CCC(=O)*; NHPh = c1ccc(N*)cc1
# Target: DCN1 (Homo sapiens (Human), UniProt Q96GG9)
# Test: Competitive FP binding assay
# Conditions: bounds given in μM; read-out: Binding affinity to DCN1 (IC50)
# Experimental: Competitive FP Binding Assay
# The Fluorescence Polarization (FP) competitive binding assays were performed to accurately determine the binding affinities of our DCN1 inhibitors. […] Serial dilutions of proteins were mixed with 46 to a final volume of 200 μl in the assay buffer (100 mM phosphate buffer, pH=6.5, with 0.02% Tween-20 and 2% DMSO). Final probe concentration was 5 nM for both assays. Plates were incubated at room temperature for 30 minutes with gentle shaking to assure equilibrium.
# Pure proteins were derived from the same expression and purification protocols. Plasmids were transformed into Rosetta2 cells, the cells were grown in Terrific Broth at 37° C. to an O.D.600>1.0 and induced with 0.4 mM Isopropyl (3-D-1-thiogalactopyranoside overnight at 20° C. The pelleted cells were resuspended in lysis buffer containing 25 mM Tris-HCl, pH 7.5, 200 mM NaCl and protease inhibitors, sonicated and centrifuged at 34,000×g for 45 minutes to remove debris. Cleared lysate was incubated with Ni-NTA resin (Qiagen) prewashed with lysis buffer, for 1 hr at 4° C. The matrix was loaded into a column then washed with 25 mM Tris-HCl, pH 7.5, 200 mM NaCl and 10 mM imidazole. Protein was eluted with 25 mM Tris-HCl, pH 7.5, 200 mM NaCl and 300 mM imidazole, concentrated and applied to a Superdex 75 (GE Healthcare) column pre-equilibrated with 25 mM Tris pH 7.5, 200 mM NaCl and 1 mM DTT. For DCN2-5, the N-terminal His6 tag was removed prior to gel filtration. Tag removal was achieved through incubation with TEV protease during overnight dialysis against 25 mM Tris pH 7.5, 200 mM NaCl and 1 mM DTT and a second Ni-NTA column. DCN2-5 proteins were stored at −80° C. in 1 mg/mL fractions containing 5% glycerol. The uncleaved DCN1 protein was stored at −80° C. without glycerol.
# DCN1, sequence (Q96GG9 58-259): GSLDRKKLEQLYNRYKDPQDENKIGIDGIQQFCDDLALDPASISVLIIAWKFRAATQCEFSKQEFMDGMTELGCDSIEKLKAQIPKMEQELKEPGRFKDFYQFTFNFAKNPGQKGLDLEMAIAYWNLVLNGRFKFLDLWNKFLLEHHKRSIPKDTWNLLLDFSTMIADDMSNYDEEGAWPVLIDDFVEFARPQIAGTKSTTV
row,SMILES,IC50 [µM]
1,CCC(=O)N[C@@H](Cc1nc2ccc(C(C)C)cc2s1)C(=O)N[C@H](CN)Cc1ccccc1 (stereo in doubt) [Example 89],> 10
2,CCC(=O)N[C@@H](Cc1nc2ccc(C(C)C)cc2s1)C(=O)N[C@@H](CN)Cc1ccccc1 (stereo in doubt) [Example 91],> 10
3,CC(C)CC(C)C(=O)N[C@@H](Cc1nc2ccc(C(C)C)cc2s1)C(=O)NCCN (stereo partly drawn) [97 & 98],> 10
4,CCC(=O)N[C@@H](Cc1nc2ccc(Cl)cc2s1)C(=O)N[C@@H](C[C@H]1CC[C@H](CNC(=O)COCCOCCOCCNC(=O)CCCC[C@@H]2SC[C@@H]3NC(=O)N[C@@H]32)CC1)C(=O)N[C@@H](CCCCN(C)C)C(=O)N[C@@H]1CCOc2ccccc21 [DI-427biotin (NC)],> 10
5,CCC(=O)N[C@@H](Cc1nc(C)n(-c2ccccc2)n1)C(=O)N[C@H](CN)Cc1ccccc1 [DI-532],> 10
6,CCC(=O)N[C@@H](Cc1nc(C)n(C(C)C)n1)C(=O)N[C@H](CN)Cc1ccccc1 [DI-533],> 10
7,CC[C@H](C)[C@H](NC(=O)[C@H](Cc1ccc2ccccc2c1)NC(C)=O)C(=O)N[C@@H](CCCCN)C(=O)N[C@@H](CC(C)C)C(N)=O [Example 1] (Ac-[2Nal]IKL-NH2),> 10
8,CCC(=O)N[C@@H](Cc1ccc2ccccc2c1)C(=O)N[C@@H](CC(F)(F)F)C(=O)N[C@@H](CCCCN)C(=O)NC(c1ccccc1)c1ccccc1 [Example 23],> 1

# The next lines start with the values.
row,IC50 [µM],SMILES
1,> 10,CCC(=O)N[C@@H](Cc1nc2ccc(Cl)cc2s1)C(=O)N[C@H](CN)Cc1ccccc1 (stereo in doubt) [Example 87]
2,> 10,CCC(=O)N[C@@H](Cc1nc2ccc(Cl)cc2s1)C(=O)N[C@@H](CN)Cc1ccccc1 (stereo in doubt) [Example 88]
3,> 10,CCC(=O)N[C@@H](Cc1nc2ccc(C(C)C)cc2s1)C(=O)N[C@@H](CNC(=O)CCN1CCOCC1)Cc1ccccc1 (stereo in doubt) [Example 94]
4,> 3,CCC(=O)N[C@@H](Cc1ccc2ccccc2c1)C(=O)N[C@H](C(=O)N[C@@H](CCCCN)C(=O)NC1CCCCC1)[C@@H](C)CC [Example 8]
5,> 10,CCC(=O)N[C@@H](Cc1ccc2ccccc2c1)C(=O)N[C@H](C(=O)N[C@@H](CCCCN)C(=O)Nc1ccccc1)[C@@H](C)CC [Example 9] (Propionyl-[2Nal]-Ile-Lys-NHPh)
6,> 10,CCC(=O)N[C@@H](Cc1ccc2ccccc2c1)C(=O)N[C@H](C(=O)N[C@@H](CCCCN)C(=O)NCCc1ccccc1)[C@@H](C)CC [Example 11] (Propionyl-[2Nal]-Ile-Lys-NHPhenethyl)

# Same assay, conditions: read-out: Binding affinity to DCN1 (IC50 (nM))
row,SMILES,IC50 [µM]
1,CCC(=O)N[C@@H](Cc1cn2cc(C(C)C)ccc2n1)C(=O)N[C@H](C(=O)N[C@@H](CCCCN)C(=O)N[C@@H]1CCOc2ccccc21)C1CCOCC1 [210 & 211],0.0812
2,CCC(=O)N[C@@H](Cc1nc2ccc(Cl)cc2s1)C(=O)N[C@H](C(=O)N[C@@H](CCCCN)C(=O)NC(c1ccccn1)c1ccccn1)C1CCOCC1 [244 & 245],0.297
3,CCC(=O)N[C@@H](Cc1nc2ccc(Cl)cc2s1)C(=O)N[C@H](C(=O)N[C@@H](CCCCN)C(=O)N[C@@H](c1ccccc1)c1cn(CCO)nn1)C1CCOCC1 [249 & 250],0.12
4,CCC(=O)N[C@@H](Cc1nc2ccc(Cl)cc2s1)C(=O)N[C@@H](C[C@H]1CC[C@H](CNC(=O)COCCOCCOCCNC(=O)CCCC[C@@H]2SC[C@@H]3NC(=O)N[C@@H]32)CC1)C(=O)N[C@@H](CCCCN(C)C)C(=O)N[C@@H]1CCOc2ccccc21 [DI-427biotin],0.189
5,CCC(=O)N[C@@H](Cc1nc2ccc(C(C)C)cc2s1)C(=O)N[C@H](CNC(=O)NC1CCNCC1)C1CCCCC1 [DI-749],0.0529
6,CCC(=O)N[C@@H](Cc1nc2ccc(C(C)C)cc2s1)C(=O)N[C@H](CNS(=O)(=O)C1CCNCC1)C1CCCCC1 [DI-777],0.0553
7,"CC[C@H](C)[C@H](NC(=O)[C@H](Cc1nc2cc(Cl)ccc2s1)NC(C)=O)C(=O)N[C@@H](CCCCN)C(=O)N[C@@H](CC(C)C)C(N)=O [Example 3, (S)-2-((2S,3 S)-2-((S)-2-acetamido-3-(5-chlorobenzo[d]thiazol-2-yl)propanamido)-3-methylpentanamido)-6-amino-N—((S)-1-amino-4-methyl-1-oxopentan-2-yl)hexanamide]",0.0092 ± 0.0014
8,"CC[C@H](C)[C@H](NC(=O)[C@H](Cc1nc2ccc(Cl)cc2s1)NC(C)=O)C(=O)N[C@@H](CCCCN)C(=O)N[C@@H](CC(C)C)C(N)=O [Example 4, (S)-2-((2S,3 S)-2-((S)-2-acetamido-3-(6-chlorobenzo[d]thiazol-2-yl)propanamido)-3-methylpentanamido)-6-amino-N—((S)-1-amino-4-methyl-1-oxopentan-2-yl)hexanamide]",0.116
9,"CC[C@H](C)[C@H](NC(=O)[C@H](Cc1nc2ccc(C(C)C)cc2s1)NC(C)=O)C(=O)N[C@@H](CCCCN)C(=O)N[C@@H](CC(C)C)C(N)=O [Example 5, (S)-2-((2S,3 S)-2-((S)-2-acetamido-3-(6-isopropylbenzo[d]thiazol-2-yl)propanamido)-3-methylpentanamido)-6-amino-N—((S)-1-amino-4-methyl-1-oxopentan-2-yl)hexanamide] (Ac-[Ala(6-iPr-benzothiazol-2-yl)]IKL-NH2)",0.0401
10,"CC[C@H](C)[C@H](NC(=O)[C@H](Cc1nc2ccc(C(C)C)cc2s1)NC(C)=O)C(=O)N[C@@H](CCCCN)C(N)=O [Example 6, (S)-2-((2S,3 S)-2-((S)-2-acetamido-3-(6-isopropylbenzo[d]thiazol-2-yl)propanamido)-3-methylpentanamido)-6-aminohexanamide]",0.632 ± 0.029
11,CCC(=O)N[C@@H](Cc1ccc2ccccc2c1)C(=O)N[C@H](C(=O)N[C@@H](CCCCN)C(=O)NC(c1ccccc1)c1ccccc1)C1CCCC1 [Example 19],0.27
12,CCC(=O)N[C@@H](Cc1ccc2ccccc2c1)C(=O)N[C@H](C(=O)N[C@@H](CCCCN)C(=O)NC(c1ccccc1)c1ccccc1)C1CCCCC1 [Example 20],0.341
13,CCC(=O)N[C@@H](Cc1ccc2ccccc2c1)C(=O)N[C@@H](CC1CCCCC1)C(=O)N[C@@H](CCCCN)C(=O)NC(c1ccccc1)c1ccccc1 [Example 21],0.29
14,CCC(=O)N[C@@H](Cc1ccc2ccccc2c1)C(=O)N[C@@H](CC(C)(C)C)C(=O)N[C@@H](CCCCN)C(=O)NC(c1ccccc1)c1ccccc1 [Example 22],0.361

# Second part, the molecule after the results:
row,IC50 [µM],SMILES
1,0.322,"CC[C@H](C)[C@H](NC(=O)[C@H](Cc1nc2ccccc2s1)NC(C)=O)C(=O)N[C@@H](CCCCN)C(=O)N[C@@H](CC(C)C)C(N)=O [Example 2, (S)-2-((2S,3 S)-2-((S)-2-acetamido-3-(benzo[d]thiazol-2-yl)propanamido)-3-methylpentanamido)-6-amino-N—((S)-1-amino-4-methyl-1-oxopentan-2-yl)hexanamide] (Ac-[Ala(benzothiazol-2-yl)]IKL-NH2)"
2,1.04 ± 0.128,"CC[C@H](C)[C@H](NC(=O)[C@H](Cc1nc2ccc(C(C)C)cc2s1)NC(C)=O)C(N)=O [Example 7, (2S,3S)-2-((S)-2-acetamido-3-(6-isopropylbenzo[d]thiazol-2-yl)propanamido)-3-methylpentanamide]"
3,3.9,CCC(=O)N[C@@H](Cc1ccc2ccccc2c1)C(=O)N[C@H](C(=O)N[C@@H](CCCCN)C(=O)NCc1ccccc1)[C@@H](C)CC [Example 10] (Propionyl-[2Nal]-Ile-Lys-NHBn)
4,0.611 ± 0.193,CCC(=O)N[C@@H](Cc1ccc2ccccc2c1)C(=O)N[C@H](C(=O)N[C@@H](CCCCN)C(=O)NC(c1ccccc1)c1ccccc1)[C@@H](C)CC [Example 12]
5,0.913,CCC(=O)N[C@@H](Cc1ccc2ccccc2c1)C(=O)N[C@H](C(=O)N[C@@H](CCCCN)C(=O)N[C@@H]1CCc2ccccc21)[C@@H](C)CC [Example 13]
6,1.93,CCC(=O)N[C@@H](Cc1ccc2ccccc2c1)C(=O)N[C@H](C(=O)N[C@@H](CCCCN)C(=O)N[C@H]1CCc2ccccc21)[C@@H](C)CC [Example 14]
7,0.461,CCC(=O)N[C@@H](Cc1ccc2ccccc2c1)C(=O)N[C@H](C(=O)N[C@@H](CCCCN)C(=O)N[C@@H]1CCCc2ccccc21)[C@@H](C)CC [Example 15]
8,0.795,CCC(=O)N[C@@H](Cc1ccc2ccccc2c1)C(=O)N[C@H](C(=O)N[C@@H](CCCCN)C(=O)N[C@H]1CCCc2ccccc21)[C@@H](C)CC [Example 16]
9,0.651,CCC(=O)N[C@@H](Cc1ccc2ccccc2c1)C(=O)N[C@H](C(=O)N[C@@H](CCCCN)C(=O)N[C@@H]1CCOc2ccccc21)[C@@H](C)CC [Example 17]
10,3.05,CCC(=O)N[C@@H](Cc1ccc2ccccc2c1)C(=O)N[C@H](C(=O)N[C@@H](CCCCN)C(=O)N[C@H]1CCOc2ccccc21)[C@@H](C)CC [Example 18]
11,0.967,CCC(=O)N[C@@H](Cc1ccc2ccccc2c1)C(=O)N[C@@H](Cc1cccs1)C(=O)N[C@@H](CCCCN)C(=O)NC(c1ccccc1)c1ccccc1 [Example 24]
